# Experimental data: US20260083815A1, “COMPOSITION FOR INHIBITING TOXICITY OF NANOPARTICLES AND ENVIRONMENTALLY-DERIVED FINE PARTICLES” (AJOU UNIVERSITY INDUSTRY-ACADEMIC COOPERATION FOUNDATION, priority 2019, published 2026)
# Read-outs that look alike come from different tables or passages of the source.
# Columns and labels:
# microglia [1] = conditions: 24 hours
# Procedure: After the cells were suspended, the number of cells was measured and adjusted to the same cell number. The cells became luminescent according to the amount of ATP using a luciferin-based ATP luminescence measurement kit (Promega, USA), the luminescence degree was measured by a luminometer (LMaxII384; Molecular Devices, USA), and ChemiDoc™ Touch Gel Imaging System (Bio-Rad) was used for imaging.
# microglia [2] = conditions: 0.1 μg/μl of each of 11 nanoparticles/particulate matters, 24 hours, formazan absorbance at 490 nm
# Procedure: Microglia cultured by the cell culture method of Example 1 were treated with 0.1 μg/μl of MNPs@SiO2(RITC) (average diameter of 50 nm), silica nanoparticles (SiO2, average diameter of 50 nm), silver nanoparticles (Ag, average diameter of 20 nm), gold nanoparticles (Au, average diameter of 10 nm), quantum dot nanoparticles (CdSe, average diameter of 10 nm), polystyrene microplastics (PS, average diameter of 2 μm and 100 nm), urban particulate matters (UPM, NIST 1648A), silica nanoparticles (SiO2, average diameter of 30 nm), titanium oxide nanoparticles (TiO2, average diameter of 40 nm), and carbon nanotubes (MWCNT, average diameter of 25 nm) for 24 hours, a kit (CellTilter 96 Aqueous One Solution Cell Proliferation Assay, Promega Corporation, Madison, WI) for analyzing cell viability based on the activity of succinic dehydrogenase was mixed, and the degree of formazan formation in accordance with the cell viability was measured with absorbance at 490 nm.
# microglia [3] = conditions: 24 hours; remark: listed apart in the source
# Procedure: Microglia cultured by the cell culture method of Example 1 was treated with 0.1 μg/μl of MNPs@SiO2(RITC) (average diameter of 50 nm), silica nanoparticles (SiO2, average diameter of 50 nm), silver nanoparticles (Ag, average diameter of 20 nm), gold nanoparticles (Au, average diameter of 10 nm), quantum dot nanoparticles (CdSe, average diameter of 10 nm), polystyrene microplastics (PS, average diameter of 2 μm and 100 nm), urban particulate matters (UPM, NIST 1648A), silica nanoparticles (SiO2, average diameter of 30 nm), titanium oxide nanoparticles (TiO2, average diameter of 40 nm), and carbon nanotubes (MWCNT, average diameter of 25 nm) for 24 hours, and then images were taken using fluorescence and optical microscopes (Axio Vert 200M fluorescence microscopy, Zeiss, Jena, Germany). Fluorescence of MNPs@SiO2(RITC) (average diameter of 50 nm) and quantum dot nanoparticles (CdSe, average diameter of 10 nm) which are fluorescent were photographed also.
compound,measurement,setting,value
O=C(O)CC(O)(CC(=O)O)C(=O)O [citric acid],ATP reduction induced by MNPs@SiO2(RITC),"microglia [1]; 0.01 or 0.1 μg/μl MNPs@SiO2(RITC), luminescence",inhibited
same,ATP increase compared to group treated only with MNPs@SiO2(RITC),microglia [1]; co-treated with 0.1 μg/μl MNPs@SiO2(RITC) (50 nm),30%
same,reduction in cell viability due to nanoparticles and particulate matters,microglia [2],mitigated
same,decrease in the cell number due to particles,microglia [3]; 0.1 μg/μl MNPs@SiO2(RITC),mitigated
same,decrease in the cell number due to particles,"microglia [3]; 0.1 μg/μl gold nanoparticles (Au, 10 nm)",mitigated
same,decrease in the cell number due to particles,"microglia [3]; 0.1 μg/μl polystyrene microplastics (PS, 2 μm)",mitigated
same,decrease in the cell number due to particles,"microglia [3]; 0.1 μg/μl polystyrene microplastics (PS, 100 nm)",mitigated
same,decrease in the cell number due to particles,"microglia [3]; 0.1 μg/μl quantum dot nanoparticles (CdSe, 10 nm)",mitigated
same,decrease in the cell number due to particles,"microglia [3]; 0.1 μg/μl silica carbon nanotubes (MWCNT, 25 nm)",mitigated
same,decrease in the cell number due to particles,"microglia [3]; 0.1 μg/μl silica nanoparticles (SiO2, 30 nm)",mitigated
same,decrease in the cell number due to particles,"microglia [3]; 0.1 μg/μl silica nanoparticles (SiO2, 50 nm)",mitigated
same,decrease in the cell number due to particles,"microglia [3]; 0.1 μg/μl silver nanoparticles (Ag, 20 nm)",mitigated
same,decrease in the cell number due to particles,"microglia [3]; 0.1 μg/μl titanium oxide nanoparticles (TiO2, 40 nm)",mitigated
same,decrease in the cell number due to particles,"microglia [3]; 0.1 μg/μl urban particulate matters (UPM, NIST 1648A)",mitigated
